# Patent US7399775B2, “β-amyloid protein production/secretion inhibitor” (Daiichi Pharmaceutical Co., Ltd., priority 2001, dated 2008)
row,Compound,melting point [°C]
1,"O=C(CCCC(c1cc(F)ccc1F)S(=O)(=O)c1ccc(Cl)cc1)N1CCCC1 (stereo not drawn) [Example 203, 5-[(4-Chlorophenyl)sulfonyl]-5-(2,5-difluorophenyl)-1-(1-pyrrolildinyl)-1-pentanone]",125 to 126
2,"O=C(O)CCCCCC(c1cc(F)ccc1F)S(=O)(=O)c1ccc(Cl)cc1 (stereo not drawn) [Example 205, 7-[(4-Chlorophenyl)sulfonyl]-7-(2,5-difluorophenyl)heptanoic Acid]",72 to 76
3,"O=C(OCCC(c1cc(F)ccc1F)S(=O)(=O)c1ccc(Cl)cc1)N1CCCC1 (stereo not drawn) [Example 208, 3-[(4-Chlorophenyl)sulfonyl]-3-(2,5-difluorophenyl)propyl=1-pyrrolidinecarboxylate]",109 to 110
4,"O=S(=O)(c1ccc(Cl)cc1)C(Cc1ccccc1)c1cc(F)ccc1F (stereo not drawn) [Example 217, 2-[1-[(4-Chlorophenyl)sulfonyl]-2-phenylethyl]-1,4-difluorobenzene]",160 to 161
5,"O=S(=O)(c1ccc(Cl)cc1)C(Cc1ccccn1)c1cc(F)ccc1F (stereo not drawn) [Example 218, 2-[2-[(4-Chlorophenyl)sulfonyl]-2-(2,5-difluorophenyl)ethyl]pyridine]",105 to 107
6,"O=S(=O)(c1ccc(Cl)cc1)C(Cc1cccnc1)c1cc(F)ccc1F (stereo not drawn) [Example 219, 3-[2-[(4-Chlorophenyl)sulfonyl]-2-(2,5-difluorophenyl)ethyl]pyridine]",162 to 163
7,"O=S(=O)(c1ccc(Cl)cc1)C(Cc1ccncc1)c1cc(F)ccc1F (stereo not drawn) [Example 220, 4-[2-[(4-Chlorophenyl)sulfonyl]-2-(2,5-difluorophenyl)ethyl]pyridine]",129
8,"O=C1OCCN1CCCC(c1cc(F)ccc1F)S(=O)(=O)c1ccc(Cl)cc1 (stereo not drawn) [Example 225, 3-[4-[(4-Chlorophenyl)sulfonyl]-4-(2,5-difluorophenyl)butyl]-2-oxazolidinone]",156 to 159
9,"CS(=O)(=O)NCCCC(c1cc(F)ccc1F)S(=O)(=O)c1ccc(Cl)cc1 (stereo not drawn) [Example 230, N-[4-[(4-Chlorophenyl)sulfonyl]-4-(2,5-difluorophenyl)butyl]methanesulfonamide]",128
10,"O=S(=O)(c1ccc(Cl)cc1)C(CCCCF)c1cc(F)ccc1F (stereo not drawn) [Example 231, 2-[1-(4-Chlorophenylsulfonyl)-5-fluoropentyl]-1,4-difluorobenzene]",77 to 78
11,"O=S(=O)(c1ccc(Cl)cc1)C1(c2cc(F)ccc2F)CC1 [Example 233, 2-[1-[(4-Chlorophenyl)sulfonyl]cyclopropyl]-1,4-difluorobenzene]",177 to 179
12,"O=S(=O)(c1ccc(Cl)cc1)C(c1cc(F)ccc1F)C(O)CCCCO (stereo not drawn) [Example 235, 6-[(4-Chlorophenyl)sulfonyl]-6-(2,5-difluorophenyl)-1,5-hexanediol]",108 to 109
13,"O=S(=O)(c1ccc(Cl)cc1)C(c1cc(F)ccc1F)C(O)CCCCO (stereo not drawn) [Example 236, 6-[(4-Chlorophenyl)sulfonyl]-6-(2,5-difluorophenyl)-1,5-hexanediol]",105 to 107
14,"CS(=O)(=O)NCCC(c1cc(F)ccc1F)S(=O)(=O)c1ccc(Cl)cc1 (stereo not drawn) [Example 245, N-[3-(4-Chlorophenylsulfonyl)-3-(2,5-difluorophenyl)propyl]methanesulfonamide]",131 to 134
15,"O=S(=O)(c1ccc(Cl)cc1)C(C/C=C\CO)c1cc(F)ccc1F (stereo not drawn) [Example 247, (Z)-5-[(4-Chlorophenyl)sulfonyl]-5-(2,5-difluorophenyl)-2-penten-1-ol]",60 to 63
16,"O=S(=O)(c1ccc(Cl)cc1)C(CCSCCO)c1cc(F)ccc1F (stereo not drawn) [Example 250, 2-[3-[(4-Chlorophenyl)sulfonyl]-3-(2,5-difluorophenyl)propylthio]ethanol]",108 to 110
17,"O=S(=O)(c1ccc(Cl)cc1)C1(c2cc(F)ccc2F)CCSCC1 [Example 251, 4-[(4-Chlorophenyl)sulfonyl]-4-(2,5-difluorophenyl)tetrahydrothiopyran]",188 to 190
18,"O=S(=O)(c1ccc(Cl)cc1)C1(c2cc(F)ccc2F)CC[S+]([O-])CC1 (stereo not drawn) [Example 252, 4-[(4-Chlorophenyl)sulfonyl]-4-(2,5-difluorophenyl)tetrahydrothiopyran-1-on]",173 to 182
19,"O=S1(=O)CCC(c2cc(F)ccc2F)(S(=O)(=O)c2ccc(Cl)cc2)CC1 [Example 253, 4-[(4-Chlorophenyl)sulfonyl]-4-(2,5-difluorophenyl)tetrahydrothiopyran-1,1-dioxide]",204 to 206
20,"O=S(=O)(CCO)CCC(c1cc(F)ccc1F)S(=O)(=O)c1ccc(Cl)cc1 (stereo not drawn) [Example 255, 2-[3-[(4-Chlorophenyl)sulfonyl]-3-(2,5-difluorophenyl)propylsulfonyl]ethanol]",111 to 113
21,"CN1CCC(c2cc(F)ccc2F)(S(=O)(=O)c2ccc(Cl)cc2)CC1 [Example 261, 4-[(4-Chlorophenyl)sulfonyl]-4-(2,5-difluorophenyl)-1-methylpiperidine]",172 to 175
22,"CC(=O)N1CCC(c2cc(F)ccc2F)(S(=O)(=O)c2ccc(Cl)cc2)CC1 [Example 263, 1-[4-[(4-Chlorophenyl)sulfonyl]-4-(2,5-difluorophenyl)piperidino]-1-ethanone]",159 to 160
23,"O=C(c1cccnc1)N1CCC(c2cc(F)ccc2F)(S(=O)(=O)c2ccc(Cl)cc2)CC1 [Example 265, [4-[(4-Chlorophenyl)sulfonyl]-4-(2,5-difluorophenyl)piperidino](3-pyridyl)methanone]",119 to 124

# Second part, the molecule after the results:
row,melting point [°C],Compound
1,135 to 136,O=C(CCCCC(c1cc(F)ccc1F)S(=O)(=O)c1ccc(Cl)cc1)N1CCCC1 (stereo not drawn) [Example 204]
2,106,"O=C(CCCCCC(c1cc(F)ccc1F)S(=O)(=O)c1ccc(Cl)cc1)N1CCCC1 (stereo not drawn) [Example 206, 7-[(4-Chlorophenyl)sulfonyl]-7-(2,5-difluorophenyl)-1-(1-pyrrolildinyl)-1-heptanone]"
3,147 to 149,"O=S(=O)(c1ccc(Cl)cc1)C(CCO)c1cc(F)ccc1F (stereo not drawn) [Example 207, 3-[(4-Chlorophenyl)sulfonyl]-3-(2,5-difluorophenyl)-1-propanol]"
4,140 to 141,"O=C(OCCC(c1cc(F)ccc1F)S(=O)(=O)c1ccc(Cl)cc1)N1CCOCC1 (stereo not drawn) [Example 211, 3-[(4-Chlorophenyl)sulfonyl]-3-(2,5-difluorophenyl)propyl=4-morpholinecarboxylate]"
5,127 to 129,"O=C(OCCC(c1cc(F)ccc1F)S(=O)(=O)c1ccc(Cl)cc1)N1CCN(c2ccccc2)CC1 (stereo not drawn) [Example 212, 3-[(4-Chlorophenyl)sulfonyl]-3-(2,5-difluorophenyl)propyl=4-phenyl1-piperazinecarboxylate]"
6,139 to 140,"NC(=O)OCCC(c1cc(F)ccc1F)S(=O)(=O)c1ccc(Cl)cc1 (stereo not drawn) [Example 214, 3-[(4-Chlorophenyl)sulfonyl]-3-(2,5-difluorophenyl)propyl=carbamate]"
7,121 to 122,"CCOC(=O)NCCC(c1cc(F)ccc1F)S(=O)(=O)c1ccc(Cl)cc1 (stereo not drawn) [Example 222, Ethyl N-[3-[(4-chlorophenyl)sulfonyl]-3-(2,5-difluorophenyl)propyl]carbamate]"
8,100 to 101,"O=C(NCCCC(c1cc(F)ccc1F)S(=O)(=O)c1ccc(Cl)cc1)OCCI (stereo not drawn) [Example 224, 2-Iodoethyl N-[4-[(4-chlorophenyl)sulfonyl]-4-(2,5-difluorophenyl)butyl]carbamate]"
9,119 to 120,"CC(C)(C)OC(=O)NCCCC(c1cc(F)ccc1F)S(=O)(=O)c1ccc(Cl)cc1 (stereo not drawn) [Example 226, t-Butyl N-[4-[(4-chlorophenyl)sulfonyl]-4-(2,5-difluorophenyl)butyl]carbamate]"
10,147 to 148,"CC(C)(c1cc(F)ccc1F)S(=O)(=O)c1ccc(Cl)cc1 [Example 232, 2-[1-[(4-Chlorophenyl)sulfonyl]-1-methylethyl]-1,4-difluorobenzene]"
11,106 to 107,"CS(=O)(=O)NCCCCC(c1cc(F)ccc1F)S(=O)(=O)c1ccc(Cl)cc1 (stereo not drawn) [Example 242, N-[5-[(4-Chlorophenyl)sulfonyl]-5-(2,5-difluorophenyl)pentyl]methanesulfonamide]"
12,163,"CC(CCNS(C)(=O)=O)C(c1cc(F)ccc1F)S(=O)(=O)c1ccc(Cl)cc1 (stereo not drawn) [Example 244, N-[4-[(4-Chlorophenyl)sulfonyl]-4-(2,5-difluorophenyl)-3-methylbutyl]methanesulfonamide]"
13,108 to 109,"O=S(=O)(c1ccc(Cl)cc1)C(C/C=C/CO)c1cc(F)ccc1F (stereo not drawn) [Example 248, (E)-5-[(4-Chlorophenyl)sulfonyl]-5-(2,5-difluorophenyl)-2-penten-1-ol]"
14,124 to 132,"O=S(=O)(c1ccc(Cl)cc1)C(CC[S+]([O-])CCO)c1cc(F)ccc1F (stereo not drawn) [Example 254, 2-[3-[(4-Chlorophenyl)sulfonyl]-3-(2,5-difluorophenyl)propylsulfinyl]ethanol]"
15,101 to 106,"CC(C)(C)OC(=O)N1CCC(c2cc(F)ccc2F)(S(=O)(=O)c2ccc(Cl)cc2)CC1 [Example 259, t-Butyl 4-[(4-chlorophenyl)sulfonyl]-4-(2,5-difluorophenyl)-1-piperidinecarboxylate]"
16,245 to 248,"O=C(c1ccncc1)N1CCC(c2cc(F)ccc2F)(S(=O)(=O)c2ccc(Cl)cc2)CC1 [Example 264, [4-[(4-Chlorophenyl)sulfonyl]-4-(2,5-difluorophenyl)piperidino](4-pyridyl)methanone]"
17,193 to 196,"O=C(c1ccccn1)N1CCC(c2cc(F)ccc2F)(S(=O)(=O)c2ccc(Cl)cc2)CC1 [Example 266, [4-[(4-Chlorophenyl)sulfonyl]-4-(2,5-difluorophenyl)piperidino](2-pyridyl)methanone]"
18,123 to 126,"COC(=O)N1CCC(c2cc(F)ccc2F)(S(=O)(=O)c2ccc(Cl)cc2)CC1 [Example 267, Methyl 4-[(4-chlorophenyl)sulfonyl]-4-(2,5-difluorophenyl)-1-piperidinecarboxylate]"
19,143 to 146,"CN(C)C(=O)N1CCC(c2cc(F)ccc2F)(S(=O)(=O)c2ccc(Cl)cc2)CC1 [Example 268, N,N-dimethyl-4-[(4-chlorophenyl)sulfonyl]-4-(2,5-difluorophenyl)-1-piperidinecarboxamide]"
